The experiment deals with CaMKII. Nature of the experiment: CaMKII self-phosphorylation (activation) in cultured mouse cerebral cortex cell, immunoblot. It is filed as cell-based. The note with it: 100 pM, 30 minutes of incubation. How it is done: The above frozen mouse brain slice segment (hippocampus CA1 region) is used for homogenization on ice by adding 150 μL homogenizing buffer (50 mM Tris-HCl pH 7.5, 0.5% Triton X-100, 4 mM EGTA, 0.5 M NaCl, 10 mM EDTA, 1 mM Na3VO4, 30 mM sodium pyrophosphate, 50 mM NaF, 1 mM DTT, 100 nM calyculin A, 50 μg/mL leupeptin, 25 μg/mL pepstatin A, 50 μg/mL trypsin inhibitor) per sample. Then, centrifugation was performed using a refrigerated centrifuge (14,000×g, 10 minutes, 4° C.), after which 100 μL of supernatant was collected and 20 μL of 6× Laemmli buffer was added to the supernatant to be boiled at 100° C. for 3 minutes, to form an immunoblotting sample. The protein concentration was measured by the Bradford method using a part of the supernatant. Reagants containing the same amount of protein were added to 10% SDS-polyacrylamido electrophoresis gel (SDS-PAGE gel), and SDS-PAGE was performed at 80 mA per 1 sheet of gel for 180 minutes. After separation by electrophoresis, transcription to a PVDF membrane was performed at 70 V for 120 minutes. […] After washing with a TTBS solution, ECL detection system (GE healthcare) was used to induce luminescence of HRP that labels the second antibody, and the X-ray film (Fuji Medical X-ray Film, Fuji Film) was sensitized to detect the band. An NIH image analysis software was used for a quantification analysis of the immunoreaction product.
The dispersion cultivation of a mouse cerebral cortex cell was performed by a previously reported method (Fukunaga et al., J. Biol. Chem. 267, 22527-22533, 1992). […] The frozen cerebral cortex cells were subjected to quantification analysis of the activation state (self-phosphorylation reaction) of CaMKII by the immunoblotting method after homogenization, similarly to the method in Test Example 2.

Consider `CCOC(=O)C1=C(N2CCCCC2)C2(CC1=O)C(=O)N=C1C(C)=CC=CN12` (stereo not shown) [SAK3], for which the “phosphorylated CaMKII / activation of CaMKII” value is reported as “increased phosphorylated CaMKII”.

(Values after patent US9173878B2, “Brain function improving agent” (Tohoku University, priority 2012, dated 2015).)
